US10583109B2, “Use of silver(I) complexes as anticancer agents” (University of Johannesburg, priority 2012, dated 2020)

Experiments:
Type in all cases: cell-based
[1] = system: SNO-oesophageal cancer cells; experiment: Morphological features of SNO-oesophageal cancer cells by inverse light microscopy; conditions: 10 μM, 24 hours of treatment
Protocol: Morphological studies were done by means of an Axiovert 25 inverted microscope (Carl Zeiss, Göttingen, Germany) with Axio Vision 3.1 software (Carl Zeiss, Göttingen, Germany) using an magnification of 100×.
After 24 hours of treatment with complexes (1)-(5) including their ligands the cells were examined under said Axiovert 25 inverted light microscope. This was done to determine how the complexes of the present invention influence morphology which was compared to 100 μM Cisplatin (apoptotic control) and 15% H2O2 (necrotic control).
Light microscope images indicating the morphology of the differentially treated SNO-oesophageal cancer cells is shown in FIG. 8. An untreated control (a) including 100 μM Cisplatin (b), an apoptotic control and 15% H2O2 (c), and a necrotic control was included. Cells were treated with 10 μM silver(I) thiocyanate phosphine complexes (1)-(5) as well as their separate ligands (Ligand-1 to Ligand-5, respectively) (FIGS. 8d to 8m). Black arrows represent signs of apoptosis, while the white arrows represent signs of necrosis.
An Axiovert 25 inverted microscope was used to examine if these complexes affect the morphological features of the malignant cells in any other way. This was done at a magnification of 100× with the use of Axio Version 3.1 software (Carl Zeiss, Gottingen, Germany).
Morphological studies where done after 24 hours of treatment to determine how these compounds influence/change specific features of the malignant SNO-oesophageal cancer cells, compared to the untreated (UC) and 1% DMSO vehicle control. The treated cancer cells including their controls were examined under an Axiovert 25 inverted light microscope (Carl Zeiss, Göttingen, Germany) with Axio Vision 3.1 software (Carl Zeiss, Göttingen, Germany) using a 100× magnification. In FIG. 19, the morphology of the different controls including Ligand-10 and complexes (10)-(12) are represented. To predict the targeting mechanisms of these compounds, the treated cells were compared to 100 μM Cisplatin (apoptotic control) and 25% H2O2 (necrotic control).

[2] = system: SNO-oesophageal cancer cells; conditions: for cells' viability: 10 µM
Protocol: The SNO-oesophageal cancer cells were cultured in Dulbecco's modified Eagles medium (DMEM) containing 10% Foetal bovine serum (FBS), 0.8% Penicillin/Streptomycin/Fungizone and 0.2% Gentamycin. The SNO-oesophageal cancer cells were subcultured every 48 hours and incubated at 37° C. under a 5% CO2 humidified atmosphere. After 48 hours the cells were trypsinized and plated (6×10^5 cells) in 3.5 cm culture dishes and left to cultivate for 24 hours.
MCF-7 breast cancer cells, in terms of a first study, and SNO-oesophageal cancer cells, in terms of a second study, were treated with 10 μM silverthiocyanide complexes (1)-(5), as well as their ligands (Ligand-1 to Ligand-5) over a 24 hour incubation period. These complexes were dissolved in 0.1% Dimethyl sulfoxide (DMSO). The DMSO alone (vehicle control) decreased the viability with approximately 2.2%, signifying its minimal influence in cancer cell growth. For comparative purposes, 100 μM Cisplatin (CDDP) and 25% H2O2 was included which respectively serves as the apoptotic and necrotic controls. Cisplatin was prepared in 0.9% NaCl, whereas H2O2 was prepared in the supplemented DMEM media right before treatment. An untreated negative control (UT) was exposed to similar conditions as the treated cells and monitored during the experimental study.
An AlamarBlue® Viability® (Serotec, UK) assay was performed after a 24 hour treatment with complexes (1)-(5) and their ligands (Ligand-1 to Ligand-5, respectively) to evaluate the cellular effect the instant complexes (and their ligands) may have on the cancer cells. AlamarBlue® dye (10%) was incubated with trypsinized cells over a 2 hour period before the fluorescence was measured with a Synergy HT Multi-Detection Microplate reader (BioTek, Winooski, Vt.) at wavelengths of 530 nm and (excitation) and 590 nm (emission). This fluorescent based assay in particular involves the metabolic oxidation-reduction reaction of resazurin to a reduced resorufin product that is directly proportional to the amount of viable cells.
The percentage cellular viability of differentially treated SNO-oesophageal cells was determined using an AlamarBlue® assay, as depicted in FIG. 7. Different controls (grey) were included: untreated, 0.1% DMSO solvent and apoptotic control (100 μM Cisplatin) as well as the corresponding ligands (10 μM) of complexes (1)-(5). Cells were treated with silver(I) thiocyanate phosphine complexes (1)-(5) at a concentration of 10 μM. The percentages were calculated with respect to the control and error bars were constructed on the basis of Standard Error of the Mean (SEM) where n=9 except for the ligand of compound 4 (n=8). The P-values (*P<0.001 and **P<0.0001) were determined with the Student's T-test to evaluate the significant difference.
The cells were thereafter treated with complexes (6)-(9) at a concentration of 10 μM prepared in 0.1% DMSO. Treatment with either 25% H2O2 or 100 μM CDDP served as controls for necrosis and apoptosis respectively. The CDDP was prepared in 0.9% NaCl while the H2O2 was diluted with supplemented DMEM prior to treatment.
A suspension (100 μl) of the differentially treated cells was added in triplicate to a microtiter plate. In the dark, AlamarBlue® dye (10 μl) was added to each well containing a sample, followed by a 2 hour incubation in a 5% CO2 incubator at 37° C. The fluorescence was read on a Synergy HT Multi-Detection Microplate reader at a wavelength of 530 nm and (excitation) and 590 nm (emission). In terms of this study, the apoptotic control CDDP (100 μM) was included. Error bars represent the standard error of the mean (SEM) where n=9. The Student's T-test was used to determine the significant difference of the treatments with respect to DMSO (P*<0.05 and P**<0.001). The silver(I) nitrate phosphine complexes under evaluation decreased the cancer cell viability to a large extent compared to DMSO except complex (9).
SNO-oesophageal cancer cells were a gift from the University of Pretoria, RSA. […]

[3] = system: SNO-oesophageal cancer cells; experiment: Flow cytometric analysis (Annexin-V FITC / PI) of apoptosis and/or necrosis in SNO-oesophageal cancer cells; conditions: 10 μM, 24 hours of treatment
Protocol: To determine if either apoptosis or necrosis occurred, the cells were double labelled with Annexin-V FITC and Propidium Iodide (PI) by means of an Annexin-V FITC assay kit (Serotec, UK). This was done according to manufacturer's instructions with a few adjustments. Briefly, the cells (±3×10^5 cells/ml) were washed twice with cold phosphate buffered saline (PBS), followed by the addition of 100 μl 1× binding buffer. Two and a half microliters of Annexin-V along with 5 μl PI were added in the dark and was incubated for 15 minutes at room temperature. After incubation, 400 μl 1× binding buffer was added and cells were analysed using the FACSAria flow cytometer (BD Biosciences, San Jose, Calif.) with FACSDiva software (BD Biosciences, San Jose, Calif.) 492 nm (excitation) and 520 nm for Annexin and 488 nm and 575 nm(emission) for PI.
The cell membrane contains a negatively charged phosphatidylserine (PS) on the inner leaflet and is exposed when apoptosis or necrosis takes place. Annexin-V interacts with PS in both apoptotic and necrotic cells, making these cellular deaths undistinguishable. This is overcome by using PI as an alternative label that interacts with the exposed DNA of necrotic cells only, leading to the fluorescent detection of both these labels. Pie charts (FIG. 9) were constructed for all the controls (including Ligand-1 to Ligand-5) and the different silver(I) thiocyanate phosphine complexes (1)-(5).
Pie charts representing the four different flow cytometric quadrants of Annexin-V and […] to determine the mode of cellular death induced in differentially treated SNO-oesophageal cells are represented in FIG. 9. An untreated control (A), apoptotic control (B) and necrotic control (C) were included. Cells were treated with 10 μM of the different ligands including the silver(I) thiocyanate phosphine complexes (1)-(5). An average percentage was calculated for all segments where the SEM is n=3 for all treatments except for 15% H2O2 (n=2). The four segments represent the following: White segment—negative for FITC and PI, Light grey segment—positive for FITC but negative for PI, Dark grey segment—positive for PI but negative for FITC and Black segment—positive for both FITC and PI. Cells undergoing early apoptosis are represented by the light grey segment, while those of late apoptosis and primary necrosis are represented by the black segment. Necrotic cells are represented by the dark grey segment and intact viable cells are shown by the white segment.
Approximately 3×10^5 cells were washed with ice cold phosphate buffered saline solution (PBS). The cells were double labeled using an Annexin-V FITC assay kit adjusting the protocol. A 1× binding buffer (100 μl) was used to fix the cells. Annexin-V (2.5 μl) and Propidium Iodide (PI—5 μl) labels were added respectively followed by a 15 minute incubation, at room temperature, in the dark. After the incubation period, 400 μl of the 1× binding buffer was added, where counting of the cellular events was made using an FACSAria flow cytometer (BD Biosciences, San Jose, Calif.) with FACSDiva software (BD Biosciences, San Jose, Calif.). This technique in particular identifies whether predicted apoptotic cell death (or necrosis) was induced by these complexes.
As observed in FIG. 14, dot blots represent the mode of cellular death induced in the SNO-oesophageal cancer cells after 24 hours of treatment. FIG. 14(a): 0.1% DMSO, FIG. 14(b): 100 μM CDDP, FIG. 14(c): 25% H2O2, FIG. 14(d-i): complexes (6)-(9). An average percentage was calculated for all quadrants where the SEM is n=2 for all treatments. The four quadrants represent the following: Quadrant Q3 is negative for FITC and PI, Quadrant Q4 is positive for FITC but negative for PI, Quadrant Q1 is positive for PI but negative for FITC and Quadrant Q2 is positive for both FITC and PI. Cells undergoing early apoptosis are more likely to be found in Quadrant Q4 while those of late apoptosis and primary necrosis will be found in Quadrant Q2. […]

Compound | signs of apoptosis (morphology) [1] | apoptotic cell death (flow cytometry, Q4 and Q2) [3] [%] | further results
c1ccc(P(c2ccccc2)c2ccccc2)cc1 [Ligand-1, triphenyl phosphine, reference compound] | minimal |  | 
Cc1ccc(P(c2ccc(C)cc2)c2ccc(C)cc2)cc1 [Ligand-2, P(p-MeC6H4)3, reference compound] | minimal |  | cells' viability [2]: 86.4%
Fc1ccc(P(c2ccc(F)cc2)c2ccc(F)cc2)cc1 [Ligand-3, P(4-FC6H4)3, reference compound] | no |  | 
Clc1ccc(P(c2ccc(Cl)cc2)c2ccc(Cl)cc2)cc1 [Ligand-4, tris parachlorophenyl phosphine, reference compound] | minimal |  | 
COc1ccc(P(c2ccc(OC)cc2)c2ccc(OC)cc2)cc1 [Ligand-5, P(p-MeOC6H4)3, reference compound] | minimal |  | cells' viability [2]: 80.7%
O=[N+]([O-])[O-].[Ag+].c1ccc(P(c2ccccc2)c2ccccc2)cc1 [complex (6), AgNO3(PPh3)] |  | 20 | 
O=[N+]1[O][Ag]([P+](c2ccccc2)(c2ccccc2)c2ccccc2)([P+](c2ccccc2)(c2ccccc2)c2ccccc2)[O]1 [complex (7), AgNO3(PPh3)2] |  | 30.6 | 
O=[N+]([O-])[O][Ag]([P+](c1ccccc1)(c1ccccc1)c1ccccc1)([P+](c1ccccc1)(c1ccccc1)c1ccccc1)[P+](c1ccccc1)(c1ccccc1)c1ccccc1 [complex (8), AgNO3(PPh3)3] |  | 24 | 
[AgSCN{P(4-MeOC6H4)3}2]n [complex (5)] |  |  | percentage cellular viability / toxicity ([2]; 10 μM, 24 hour treatment, compared to the control): highly toxic; necrotic cell death (morphology) [1]: Necrotic cell death was also observed
